The term Papp denotes the rate of passage across a membrane or cell layer, normalised by area and donor concentration. Higher therefore signals fast passage. By logD is commonly meant lipophilicity at a set pH, counting ionised and neutral species. Read a high logD as a more lipophilic compound. As usually defined, the CLint scaled is the rate of metabolic loss divided by the concentration. Lower therefore signals greater metabolic stability. Broadly, the Ki is the equilibrium dissociation constant of an inhibitor or competing ligand from its target. Lower therefore signals a stronger hold on the target. Usually Papp B→A stands for the apparent permeability from the basolateral to the apical side of a cell layer. For orientation: Papp A→B means the apparent permeability from the apical to the basolateral side of a cell layer.

The conditions of data set [1]: dog, mdckii-le.
Description: (§1) Intrinsic absorptive permeability from basolateral side to apical side of dog RRCK cells
For data set [2] the following is noted: dog, mdckii-le. The source holds these as a separate data set.
Description: (§2) Intrinsic absorptive permeability from apical side to basolateral side of dog RRCK cells
A short description of the next data set: physchem. Conditions: octanol/water, pH 7.4.
Data set [3] is described as follows: in vitro. Conditions: human, liver microsomes.
Description: Intrinsic clearance in human liver microsomes
In data set [4] the target is Proto-oncogene tyrosine-protein kinase ROS (Homo sapiens, UniProt P08922, G2032R).
A short description of data set [5]: in vivo. Conditions: rat, CSF / free plasma.
Description: Ratio of AUC in CSF to free plasma in rat
The nature of data set [6]: in vivo. Conditions: rat, brain / plasma.
Description: Ratio of fAUC in brain to plasma in rat
Data set [7] in a line: in vitro. The conditions noted are these: dog, MDCK.
Description: as §1
Data set [8] is described as follows: in vitro. Conditions: dog, MDCK. This is another data set of the same source.
Description: as §2

Proto-oncogene tyrosine-protein kinase ROS, sequence (P08922 28-2347 G2032R limits assumed): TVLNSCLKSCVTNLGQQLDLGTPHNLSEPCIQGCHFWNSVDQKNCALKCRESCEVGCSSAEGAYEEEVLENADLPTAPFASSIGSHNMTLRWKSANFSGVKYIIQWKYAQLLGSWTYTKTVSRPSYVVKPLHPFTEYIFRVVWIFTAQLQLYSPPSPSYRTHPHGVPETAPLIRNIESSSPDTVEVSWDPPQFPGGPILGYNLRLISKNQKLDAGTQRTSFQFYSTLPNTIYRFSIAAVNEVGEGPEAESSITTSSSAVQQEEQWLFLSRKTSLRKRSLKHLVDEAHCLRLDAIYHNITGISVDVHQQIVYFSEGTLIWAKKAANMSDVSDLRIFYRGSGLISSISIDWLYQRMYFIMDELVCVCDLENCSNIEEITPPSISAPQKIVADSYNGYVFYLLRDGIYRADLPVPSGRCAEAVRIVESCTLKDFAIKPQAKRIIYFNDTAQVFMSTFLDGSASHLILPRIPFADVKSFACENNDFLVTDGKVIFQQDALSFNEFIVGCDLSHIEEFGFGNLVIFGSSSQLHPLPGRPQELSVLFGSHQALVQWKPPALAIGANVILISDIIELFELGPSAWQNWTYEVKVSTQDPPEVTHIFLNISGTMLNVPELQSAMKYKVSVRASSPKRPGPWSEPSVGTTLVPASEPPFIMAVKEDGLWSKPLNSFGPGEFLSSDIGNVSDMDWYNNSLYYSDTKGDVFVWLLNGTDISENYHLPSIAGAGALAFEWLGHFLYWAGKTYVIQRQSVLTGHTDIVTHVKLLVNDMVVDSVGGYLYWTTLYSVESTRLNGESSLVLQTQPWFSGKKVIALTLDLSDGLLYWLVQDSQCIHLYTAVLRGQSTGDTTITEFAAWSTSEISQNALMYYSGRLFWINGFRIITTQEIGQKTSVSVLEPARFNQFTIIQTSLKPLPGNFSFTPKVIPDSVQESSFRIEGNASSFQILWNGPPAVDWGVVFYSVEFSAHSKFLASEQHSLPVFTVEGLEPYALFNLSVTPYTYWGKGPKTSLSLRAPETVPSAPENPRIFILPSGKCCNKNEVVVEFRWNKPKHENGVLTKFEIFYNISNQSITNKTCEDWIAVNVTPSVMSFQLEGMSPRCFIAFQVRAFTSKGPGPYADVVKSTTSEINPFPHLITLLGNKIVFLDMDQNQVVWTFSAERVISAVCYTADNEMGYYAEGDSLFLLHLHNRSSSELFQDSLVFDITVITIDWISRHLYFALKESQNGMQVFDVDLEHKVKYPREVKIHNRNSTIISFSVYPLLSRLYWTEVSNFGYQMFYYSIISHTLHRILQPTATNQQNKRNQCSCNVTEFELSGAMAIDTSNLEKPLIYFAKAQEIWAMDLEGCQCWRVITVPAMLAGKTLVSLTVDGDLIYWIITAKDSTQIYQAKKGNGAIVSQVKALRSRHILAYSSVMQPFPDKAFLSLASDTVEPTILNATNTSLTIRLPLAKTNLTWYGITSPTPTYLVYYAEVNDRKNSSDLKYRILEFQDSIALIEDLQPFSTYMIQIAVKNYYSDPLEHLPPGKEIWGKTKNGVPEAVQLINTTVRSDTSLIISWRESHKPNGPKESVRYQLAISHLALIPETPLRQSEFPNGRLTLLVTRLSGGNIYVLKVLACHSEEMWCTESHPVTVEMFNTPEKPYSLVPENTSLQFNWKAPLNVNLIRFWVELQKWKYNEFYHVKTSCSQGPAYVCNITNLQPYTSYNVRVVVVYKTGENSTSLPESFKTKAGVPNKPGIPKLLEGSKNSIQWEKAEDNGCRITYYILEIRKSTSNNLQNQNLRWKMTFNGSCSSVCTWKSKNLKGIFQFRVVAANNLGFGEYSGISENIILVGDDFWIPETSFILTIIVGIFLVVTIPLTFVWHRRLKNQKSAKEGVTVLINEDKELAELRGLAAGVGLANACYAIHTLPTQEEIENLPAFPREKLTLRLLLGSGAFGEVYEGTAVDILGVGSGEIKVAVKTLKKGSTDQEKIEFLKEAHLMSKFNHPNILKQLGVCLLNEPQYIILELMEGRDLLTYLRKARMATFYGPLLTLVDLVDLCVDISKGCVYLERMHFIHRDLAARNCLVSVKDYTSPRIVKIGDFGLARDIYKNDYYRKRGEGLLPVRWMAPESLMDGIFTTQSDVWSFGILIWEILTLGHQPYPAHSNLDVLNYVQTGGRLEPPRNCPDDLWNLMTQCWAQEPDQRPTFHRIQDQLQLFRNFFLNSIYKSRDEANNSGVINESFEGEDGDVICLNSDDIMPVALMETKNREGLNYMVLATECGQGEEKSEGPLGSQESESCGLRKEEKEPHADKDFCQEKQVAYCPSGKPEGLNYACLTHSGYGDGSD

In the case of `Cc1[nH][n+](C)c2c1-c1cnc(N)c(c1)O[C@H](C)c1cc(F)ccc1C(=O)N(C)C2`, the Papp in [1] stood at 28.3 ×10⁻⁶ cm/s; in [2] it was 8.1 ×10⁻⁶ cm/s. In “physchem”, this compound showed a logD of 2.2. Moreover, the CLint scaled in “in vitro [3]” stood at 8.6 mL/min/kg.
In data set [4], `CCc1cc2c(cc1N1CCC(N3CCOCC3)CC1)C(C)(C)c1[nH]c3cc(C#N)ccc3c1C2=O` [ALECTINIB] came in with a Ki above 3 µM.
For `C[C@H]1Oc2cc(cnc2N)-c2c(nn(C)c2C#N)CN(C)C(=O)c2ccc(F)cc21` [LORLATINIB], the Kp uu worked out at 0.31 in the data set “in vivo [5]” and 0.21 in the data set “in vivo [6]”. Moreover, the Papp B→A in the data set “in vitro [7]” was determined as 28 ×10⁻⁶ cm/s. Besides, the Papp A→B in the data set “in vitro [8]” was 19.3 ×10⁻⁶ cm/s.

For the origin of these results see ChEMBL document CHEMBL4265874 (Eur J Med Chem, 2017).
